Target: T1, CCR2 (Homo sapiens, UniProt P41597)
T1 construct: THP-1 human monocytic leukemic cell line, which expresses endogenous CCR2; endogenous in cells; host or cells: human peripheral blood mononuclear cells, human monocytes or THP-1 cells
T1 sequence (P41597 1-360 isoform P41597-2): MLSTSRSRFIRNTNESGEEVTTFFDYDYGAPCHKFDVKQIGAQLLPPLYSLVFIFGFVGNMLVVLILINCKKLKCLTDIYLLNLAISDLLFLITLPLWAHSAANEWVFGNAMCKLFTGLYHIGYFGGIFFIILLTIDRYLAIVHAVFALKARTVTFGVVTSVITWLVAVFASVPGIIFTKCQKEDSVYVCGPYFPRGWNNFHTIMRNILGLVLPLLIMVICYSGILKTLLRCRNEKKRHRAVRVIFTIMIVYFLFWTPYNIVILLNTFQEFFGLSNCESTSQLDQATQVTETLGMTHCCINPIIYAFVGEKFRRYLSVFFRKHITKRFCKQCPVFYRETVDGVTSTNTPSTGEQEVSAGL
Test: CCR2 binding: antagonism of 125I-MCP-1 binding (human PBMC / THP-1 whole cell)
Details: n = 1 unless otherwise noted
Description: Antagonism of MCP-1 Binding to Human PBMC
Millipore filter plates (#MABVN1250) are treated with 100 μl of binding buffer (0.5% bovine serum albumin, 20 mM HEPES buffer and 5 mM magnesium chloride in RPMI 1640 media) for thirty minutes at room temperature. To measure binding, 50 μl of binding buffer, with or without a known concentration compound, is combined with 50 μl of ^125-I labeled human MCP-1 (to give a final concentration of 150 pM radioligand) and 50 μl of binding buffer containing 5×10^5 cells. Cells used for such binding assays can include human peripheral blood mononuclear cells isolated by Ficoll-Hypaque gradient centrifugation, human monocytes (Weiner et al., J. Immunol. Methods. 1980, 36, 89), or the THP-1 cell line which expresses the endogenous receptor. The mixture of compound, cells and radioligand are incubated at room temperature for thirty minutes. Plates are placed onto a vacuum manifold, vacuum applied, and the plates washed three times with binding buffer containing 0.5M NaCl. The plastic skirt is removed from the plate, the plate allowed to air dry, the wells punched out and counted. The percent inhibition of binding is calculated using the total counts obtained in the absence of any competing compound and the background binding determined by addition of 100 nM MCP-1 in place of the test compound.
THP-1 Monocytic Cell Binding: Whole Cell-based Assay
The human CCR2 binding assay was also established with the THP-1 human monocytic leukemic cell line, which expresses endogenous CCR2, using ^125I-human MCP-1 as the tracer ligand. Radioligand competition binding assays were used for assessment of binding affinity of test compounds to the CCR2 receptor. For radioligand competition studies, 100 μl containing 2.5×10^5 THP-1 cells/well (in assay buffer containing 50 mM HEPES, pH7.4, 5 mM MgCl2, 1 mM CaCl2 and 0.5% BSA) were added to 96-well assay plates containing the test compounds in 3-fold serial dilution, with final concentrations ranging from 5 μM to 100 pM. Subsequently, 50 μl ^125I-MCP-1 radioligand at a final concentration of 0.2 nM in assay buffer were added to the reaction. After a 90 minute incubation period at room temperature, the binding reaction was terminated by harvesting on GF/B filter plates (PerkinElmer Cat. No. 6005177) followed by washing with ice-cold wash buffer (50 mM HEPES, pH 7.4, 0.1% BSA, 0.5 M NaCl) to remove unbound ligand. After washing, the plate was dried for 45 minutes at 60° C. followed by addition of 40 μl MicroScint 20 scintillation fluid, sealed and analyzed by the Packard TopCount reader. Non-specific binding was determined in the presence of 10 μM (a molar excess of 5000 fold) of an in-house CCR2 small molecule antagonist (CCR2 IC50=2 nM). Specific binding of ^125I-MCP-1 was calculated as the difference between total and non-specific binding. The competition data was plotted as a percentage inhibition of radioligand specific bound in the absence of test compound (percent of total signal). After correcting for non-specific binding, IC50 values were determined. The IC50 is defined as the concentration of test compound required to reduce ^125I-MCP-1 specific binding by 50% and was calculated using the four parameter logistic equation to fit the normalized data.

C[C@H]1CC=C(C(=O)O)[C@](C)(c2ccc(Cl)c(C(F)(F)F)c2)C1 [Example 4-01a, (4S,6S)-6-(4-chloro-3-(trifluoromethyl)-phenyl)-4,6-dimethylcyclohex-1-enecarboxylic acid]
Ki: 9 nM

C[C@@H]1CC=C(C(=O)O)[C@@](C)(c2ccc(Cl)cc2)C1 (racemic) [Example 1-21, (4RS,6RS)-6-(4-chlorophenyl)-4,6-dimethylcyclohex-1-enecarboxylic acid]
Ki: 900 nM

C[C@@H]1CC=C(C(=O)O)[C@@](C)(c2cc(Cl)cc(Cl)c2)C1 (racemic) [Example 1-30, (4RS,6RS)-6-(3,5-dichlorophenyl)-4,6-dimethylcyclohex-1-enecarboxylic acid]
Ki: 110 nM

C[C@]1(c2ccc(Cl)c(Cl)c2)C[C@H](c2ccccc2)CC=C1C(=O)O (racemic) [Example 1-06, (4RS,6RS)-6-(3,4-dichlorophenyl)-6-methyl-4-phenylcyclohex-1-enecarboxylic acid]
Ki: 3900 nM

Cc1cccc([C@@]2(C)C[C@H](C)CC=C2C(=O)O)c1 (racemic) [Example 1-18, (4RS,6RS)-4,6-dimethyl-6-m-tolylcyclohex-1-enecarboxylic acid]
Ki: 930 nM

C[C@@H]1CC=C(C(=O)O)[C@@](C)(c2ccc(F)cc2)C1 (racemic) [Example 1-22, (4RS,6RS)-6-(4-fluorophenyl)-4,6-dimethylcyclohex-1-enecarboxylic acid]
Ki: 480 nM

Cc1ccc(C)c([C@@]2(C)C[C@H](C)CC=C2C(=O)O)c1 (racemic) [Example 1-26, (4RS,6RS)-6-(2,5-dimethylphenyl)-4,6-dimethylcyclohex-1-enecarboxylic acid]
Ki: 550 nM

COc1ccccc1C1(C)CCCC=C1C(=O)O (centres unmarked) [Example 1-07, 6-(2-methoxyphenyl)-6-methyl methylcyclohex-1-enecarboxylic acid]
Ki: 10000 nM

Cc1ccc([C@@]2(C)C[C@H](C)CC=C2C(=O)O)cc1C (racemic) [Example 1-15, (4RS,6RS)-6-(3,4-dimethylphenyl)-4,6-dimethylcyclohex-1-enecarboxylic acid]
Ki: 330 nM

CC(C)(C)OC[C@@H]1CC=C(C(=O)O)[C@@](C)(c2ccc(Cl)c(C(F)(F)F)c2)C1 (racemic) [Example 10, (4RS,6RS)-4-(tert-butoxymethyl)-6-(4-chloro-3-(trifluoromethyl)phenyl)-6-methylcyclohex-1-enecarboxylic acid]
Ki: 6200 nM

C[C@@H]1CC=C(C(=O)O)[C@@](C)(c2ccccc2)C1 (racemic) [Example 1-24, (4RS,6RS)-4,6-dimethyl-6-phenylcyclohex-1-enecarboxylic acid]
Ki: 1000 nM

CC1(c2cccc(Cl)c2)CCCC=C1C(=O)O (racemic) [Example 1-09, 6-(3-chlorophenyl)-6-methylcyclohex-1-enecarboxylic acid]
Ki: 3000 nM

CC1=C(C(=O)O)[C@@](C)(c2ccc(Cl)c(Cl)c2)C[C@H](C)C1 (racemic) [Example 6, (4RS,6RS)-6-(3,4-dichlorophenyl)-2,4,6-trimethylcyclohex-1-enecarboxylic acid]
Ki: 580 nM

Cc1ccc(C2(C)CCCC=C2C(=O)O)cc1C (racemic) [Example 1-08, 6-(3,4-dimethylphenyl)-6-methylcyclohex-1-enecarboxylic acid]
Ki: 8200 nM

CC1(c2ccc(Cl)cc2)CCCC=C1C(=O)O (racemic) [Example 1-02, 6-(4-chlorophenyl)-6-methylcyclohex-1-enecarboxylic acid]
Ki: 3400 nM

Cc1ccc([C@@]2(C)C[C@H](C)CC=C2C(=O)O)cc1Cl (racemic) [Example 1-04, (4RS,6RS)-6-(3-chloro-4-methylphenyl)-4,6-dimethylcyclohex-1-enecarboxylic acid]
Ki: 69 nM

C[C@]1(c2ccc(Cl)c(C(F)(F)F)c2)C[C@H](OCc2ccccc2)CC=C1C(=O)O (racemic) [Example 12, (4RS,6RS)-4-(benzyloxy)-6-(4-chloro-3-(trifluoromethyl)phenyl)-6-methylcyclohex-1-enecarboxylic acid]
Ki: 2500 nM

From patent publication US8507559B2, “Cyclohexenyl modulators of chemokine receptor activity” (Bristol-Myers Squibb Company, priority 2008, dated 2013)
